# Assay results reported in patent US20050164306A1, “Methods for screening for a compound useful in the treatment or prevention of lymphocytic disorders, for inhibiting lymphocite activity and preventing or treating lymphocytic disorders” (priority 2002, published 2005).
# “Also recorded” adds a separate entry of the source. Like-named read-outs stand apart in the source and are kept apart here.
# What was measured:
# mice [1] = assay: Graft vs. host reaction, spleen weight after cell transplant (Bundick model); type: in vivo; conditions: for splenomegaly: spleen weighed 21 days after injection of parents' spleen cells; for suppression %: suppression of splenomegaly, no treatment = 100, positive = 0
# Protocol: Mice were injected their parents' spleen cells. 21 days later, their spleen was weighed. Activation of Th2 (T helper cells) cells. The treatment groups are cyclosporin, BGO, and AMP. […] The “No treatment group” is constituted of normal mice. The “positive” group is constituted of mice having undergone spleen tissue transplantation and having been injected with the carrier only (PBS™) without inhibitor. […] The spleen of all mice was then removed and weighed. The weigh of treated mice was then compared with that of the “No treatment” mice.
# Jurkat cells = assay: Cell growth and proliferation of Jurkat cell lines; type: cell-based, human; conditions: inhibitor added at day 0; cell counts on day 5
# Protocol: T cell Jurkat is an acute T cell leukemia obtained from the peripheral blood of human. It was purchassed from ATCC and was grown and maintained in RPMI™. 1640 medium containing 10% FBS, 2 mM L-glutamine adjusted to contain 1.5 g/L sodium bicarbonate, 4.5 g/L glucose, 10 mM HEPES and 1.0 mM sodium pyruvate. To evaluate the effect of the different inhibitors of NTPDases on the growth of Jurkat cells, BGO 136, erythrosin, 8 Bus ATP, AMP and β-γ-Me ATP were added in the RPMI™ 1640 medium in presence of cells at day=0. Cells counts and viability of cells were determined on day=5.
# NTPDase [2] = assay: NTPDase assay on intact human peripheral blood lymphocytes (PBL); type: biochemical
# Protocol: Human lymphocytes were obtained from peripheral venous blood of normal and healthy medication-free volunteers. Fresh blood collected in EDTA glass tubes was layered into Histopaque™-1077 (a solution of Ficoll™ and sodium diatrizoate adjusted to a density of 1.077, Sigma, USA) and centrifuged at 400 g for exactly 30 min, at room temperature. During centrifugation, erythrocytes and granulocytes were aggregated by Ficoll™ and rapidly sedimented, whereas lymphocytes remained at the plasma interface. Plasma (the upper layer) was carefully removed to prevent disturbance of the buffy coat. The latter fraction rich in lymphocytes was recovered with a pasteur pipette and washed twice with RPMI™ 1640 medium by centrifugation, for 10 min, at 250×g. The final pellet was suspended in fresh RPMI™ 1640 medium supplemented with 2 mM L-glutamine, 10% foetal bovine serum inactivated at 56° C. for 30 min, and antibiotics: penicillin […], streptomucin 100 ug/ml and amphotericin 2.5 ug/ml. Cells were counted with the hemacytometer. […] The cell preparation named PBL (for peripheral blood lymphocyte) was immediately used for NTPDase assays and for mitogenic responses to stimulators.
# Prior to the assays, human normal lymphocytes as well as leukemic cell lines, were washed three times with phosphate-free saline in 95 mM NaCl, 1 mM CaCl2, 2 mM MgCl2 and 45 mM Tris —HCl buffer (pH 7.4). Enzyme assays were carried out at 37° C. in 1 ml of the following assay medium: 95 mM NaCl, 5 mM KCl, 1 mM CaCl2, 2 mM MgCl2, 5 mM glucose, 0.05% BSA, 5 mM tetramisole and 45 mM Tris-HCl (pH 7.5). The reaction was started by adding the substrate (200 uM of ATP or ADP) and stopped with 250 ul of the Malachite green reagent. Controls were run with the enzyme added after the Malachite green reagent. Where indicated, 10 mM sodium azide (NaN3) or 1 mM, 5 mM and 10 mM of BGO 136 were added directly to the assay mixture. Inorganic phosphate was estimated according to Baykov et al.^(1) and enzyme activity was either expressed as nmoles of Pi released/min/mg of protein which corresponds to mUnits^(2) or as nmoles Pi/min/10^6 cells. Where indicated, lymphoid cells were lysed by three freeze thaw cycles in saline buffer and protein was measured with the method of Bradford using bovine serum albumin as a standard (3).
# [3] = test system: human peripheral blood lymphocytes (PBL); assay: Mitogen stimulation and proliferation assay (3H-thymidine uptake); type: cell-based; conditions: for lymphocytic activity including proliferation and humoral response (in words): normal T lymphocyte
# Protocol: A thymidine uptake assay was used to evaluate the effect of […] inhibitors on the proliferative activity of normal lymphocytes. Cell suspensions of fresh human peripheral blood lymphocytes (PBL) were resuspended in RPMITM 1640 medium supplemented with 10% foetal bovine serum at a concentration of 2×10^6/ml. Aliquots of […] were plated on a […] (96-well) and stimulated with 10 ug/ml of (Con-A) or 40 ug/ml of (LPSTM) at a final volume of 0.2 ml/well. ConATM and LPSTM were used to stimulate preferentially T cells and B cells, respectively. […] After an additional a 4 h incubation at 37° C., cells were collected with a cell harvester and ^3H thymidine incorporation was measured in triplicate samples by liquid scintillation counting.
# mice [4] = assay: In vivo antibody production assay (humoral response to BSA, ELISA)
# Protocol: Immunity mice were primed with antigen by an intraperitoneal injection of BSA as a T-dependent antigen. Briefly, BSA was resuspended in PBS (pH 7.2) and emulsified in the same volume of complete Freund's adjuvant (CFA). 30 ug BSA in […] PBS was given to each mouse. Four groups of ten mice were immunized. • Group 1: mice were injected i.p. with BSA alone with emulsified in (CFA) Group: Ag. • Group 2: mice were injected i.p. with BSA plus BGO 136 (400 mM) in […] PBS, emulsified in (CFA) or erythrosin B (0.25 g/Kg) • Group 3: mice were injected i.p. with BSA plus BGO 136 (800 mM) in […] PBS, emulsified in (CFA) or erythrosin B (0.5 g/Kg) • Group 4: mice were treated with BSA in presence of the inhibitor emulsified in (CFA). These mice received various i.p. doses of BGO 136 400 mM in 0.1 ml of normal PBS or erythrosin B 0.25 g/Kg, 2 doses/week are given as a maintenance dose. (group named DM=maintenance dose)
# These initial immunizations (i.p.) were followed by two subsequent immunizations with emulsions of BSA alone or in presence of BGO136 400 mM or 800 mM, in incomplete Freund's adjuvant. Five days after each immunization, blood was collected from each animal, sera was analysed by an ELISA assay.
# Flat-bottomed microtiter plate were coated with BSA (5 ug/ml) in NaHCO3/Na2CO3 50 mM (pH 9.6) at 37° C. for 2 h. Plates were washed three times with (PBS buffer, pH 7.4, 0.5 ml/L Tween-20) and then blocked with 400 ul of milk per well overnight, at 4° C. Diluted sera specimens were added (100 ul/well) and incubated for 2 h at 37° C. After thorough washing, wells were incubated with 100 ul of goat-anti-mouse IgG conjugated with peroxydase for 2 h at 37° C. followed by several washes. TMB substrate solution (100 ul/well), (42 mM TMB in DMSO, 0.1 M citric acid, Na2HPO4 0.2 M and H2O2 30%) was added. Color development was allowed to proceed for approximately 15 to 30 min, at room temperature. Reaction was terminated by adding 30 ul of 4N H2SO4. Optical density was read at 450 nm.
# NTPDase [5] = conditions: ATP and ADP as substrate; read-out: Ki (mixed type of inhibition); cited from earlier work
smiles,measurement,setting,value
"Nc1ncnc2c1ncn2[C@@H]1O[C@H](COP(=O)(O)O)[C@@H](O)[C@H]1O [AMP, adenosine 5′-monophosphate]",splenomegaly,mice [1],6.7 ± 0.82 mg/g of b. weight
same,suppression %,mice [1],8%
same,Jurkat cell proliferation (in words),Jurkat cells,marked reduction of cell proliferation
CCCCSc1nc2c(N)ncnc2n1[C@@H]1O[C@H](COP(=O)(O)O)C(O)[C@@H]1O (stereo partly drawn) [8 BUS-AMP],effect on NTPDase activity (in words),NTPDase [2],pronounced dose-dependent inhibition
same,effect on NTPDase activity (in words),NTPDase [2]; listed as 8 Bus AMP,decrease the NTPDase activity
same,lymphocytic activity including proliferation and humoral response (in words),[3],decrease
CCCCSc1nc2c(N)ncnc2n1C1OC(COP(=O)(O)OP(=O)(O)OP(=O)(O)O)C(O)C1O (stereo not drawn) [8 BUS-ATP],effect on NTPDase activity (in words),NTPDase [2],decrease the NTPDase activity
same,Jurkat cell proliferation (in words),Jurkat cells,marked reduction of cell proliferation
same,proliferation induced by ConA (in words),[3]; ConA-stimulated PBL,reduced cell proliferation
same,lymphocytic activity including proliferation and humoral response (in words),[3],decrease
O.O=C([O-])c1ccccc1-c1c2cc(I)c(=O)c(I)c-2oc2c(I)c([O-])c(I)cc12.[Na+].[Na+] [erythrosin B],effect on NTPDase activity (in words),NTPDase [2],dose-dependent inhibition; also recorded: decrease the NTPDase activity
same,Jurkat cell proliferation (in words),Jurkat cells,marked reduction of cell proliferation
same,levels of antibodies to albumin (in words),mice [4]; especially with multiple injections (group DM),significant decrease
same,proliferation induced by ConA (in words),[3]; ConA-stimulated PBL,dose-dependent inhibition
same,lymphocytic activity including proliferation and humoral response (in words),[3],decrease
"Nc1ncnc2c1ncn2[C@@H]1O[C@H](COP(=O)(O)OP(=O)(O)CP(=O)(O)O)[C@@H](O)[C@H]1O [β-γ-Me ATP, beta-gamma methylene ATP]",effect on NTPDase activity (in words),NTPDase [2],inhibited in a dose-dependent manner; also recorded: decrease the NTPDase activity
same,Jurkat cell proliferation (in words),Jurkat cells,less pronounced but significant effect
same,proliferation induced by ConA (in words),[3]; ConA-stimulated PBL,reduced cell proliferation
same,lymphocytic activity including proliferation and humoral response (in words),[3],decrease
"O=S(=O)(O)c1ccc2c(O)cc(S(=O)(=O)O)cc2c1 [BGO 136, 1-hydroxynaphtalene-3,6 disulfonic acid]","efficiency in preventing spleen growth following transplantation, versus cyclosporine",mice [1],more efficient than cyclosporine
same,transplanted spleens versus positive control mice (in words),mice [1]; ANOVA,significantly smaller
same,splenomegaly,mice [1],4.3 ± 0.29 mg/g of b. weight
same,suppression %,mice [1],56%
same,effect on NTPDase activity (in words),NTPDase [2],decrease the NTPDase activity; also recorded: dose-dependent inhibition
same,inhibition of ATPase and ADPase activities,NTPDase [2]; 5 mM,40%
same,inhibition of ATPase and ADPase activities,NTPDase [2]; 10 mM,≥ 50%
same,Ki,NTPDase [5],380 µM
same,Jurkat cell proliferation (in words),Jurkat cells,marked reduction of cell proliferation
same,tolerance: toxic or allergic reactions,mice [4]; during administration (two months),No toxic or allergic reactions were observed
same,effect on levels of albumin antibodies (in words),mice [4]; repeated injections (group DM) versus single dose,even more efficient
same,reduction of levels of albumin antibodies,mice [4]; single dose 800 mM i.p.,≤ 50%
same,proliferation induced by ConA (in words),[3]; ConA-stimulated PBL,inhibited in a dose-dependent manner
same,"proliferation induced by ConA, percent of the positive control values","[3]; ConA-stimulated PBL, 10 mM",about 10%
same,inhibition of LPS-induced proliferation (in words),[3]; LPS-stimulated PBL,much less pronounced
same,lymphocytic activity including proliferation and humoral response (in words),[3],decrease
same,proliferation of non-activated lymphocytes (3H-Thymidine incorporation in DNA),[3]; unstimulated PBL,did not affect
